# In US9403829B2, “Pharmaceutical compositions of 7-(6-(2-hydroxypropan-2-yl)pyridin-3-yl)-1-((trans)-4-methoxycyclohexyl)-3,4-dihydropyrazino [2,3-b]pyrazin-2(1H)-one, a solid form thereof and methods of their use” (Signal Pharmaceuticals, LLC, priority 2011, dated 2016):
# Like-named read-outs stand apart in the source and are kept apart here.
# Assays:
# [1] = Phase 1 food effect study (Part 2), single 20-mg oral dose of Compound A tablet, fed vs fasted; assay type: in vivo, human; conditions: for CL/F / AUC(0-inf) / Cmax / half-life / AUC(0-t) / Vd/F: geometric mean; for Tmax / AUC(0-inf) / Cmax / half-life / AUC(0-t) / Vd/F: male, human, plasma, 20 mg; for AUC(0-t): read-out: AUC0-24; for Vd/F: read-out: Vz/F
# Procedure: The primary objectives of this study are: to characterize the biotransformation and excretion of Compound A following a single 20 mg oral dose of Compound A capsule containing a microtracer of [^14C]-Compound A solution in healthy male subjects (Part 1) and to evaluate the effect of a high-fat meal on the pharmacokinetics (PK) of Compound A following a single oral 20-mg dose of Compound A tablet (Part 2).
# Part 2 design: Part 2 will be a 2-period crossover study; in Period 1, subjects (n=12) will be randomized to receive either an oral 20 mg dose of Compound A tablet (Treatment B) under fed (n=6) or fasted (n=6) conditions. In Period 2, subjects will receive Treatment B under converse conditions based on treatment assignment in Period 1. After screening, subjects (n=12) eligible for participation in the study will return to the study center on Day −1 for baseline assessments. Subjects who continue to be qualified for participation in the study will be randomized and enrolled in the study on the morning of Day 1. Subjects (n=6) will be enrolled and randomized to receive Treatment B under fed or fasted conditions on the morning of Day 1 after fasting for at least 8 hours. Fed subjects will be served a standard high fat meal breakfast, or its equivalent, that must be consumed within 30 minutes from serving. Dosing must occur 30 minutes (+5 minutes) after serving a subject breakfast. All subjects (fed and fasted) will fast (not to consume any food) until 4 hours post dose. Water will be allowed during the fasting period. Subjects will be domiciled at the study center from Day −1 until the morning of Day 5 of each period. Subjects will be discharged from the study center on the morning of Day 5 upon satisfactory safety review and completion of study-related procedures. Safety and tolerability data will be monitored and collected following each dosing period. Periods 1 and 2 will be separated by a washout period of at least 7 days (no more than 10 days) from prior dose to the next dose. In certain instances, a longer washout may be acceptable if previously agreed to.
# Serial blood samples (10 mL) will be collected at predose (0 hour) and at 0.5, 1, 2, 3, 6, 12, 24, 48, 72 and 96 hours post dose for the determination of plasma concentrations of Compound A and the O-desmethyl metabolite of Compound A. Safety will be monitored throughout the study; safety evaluations will include AE reporting, physical examinations, vital sign measurements, ECG, and clinical laboratory safety tests. Concomitant medications will be assessed and recorded throughout the study as well. In addition, during the subjects' stay-in-the clinic (i.e., confinement period), fasting plasma glucose levels will be monitored as part of the clinical laboratory safety tests. For Parts 1 and 2, all subjects will return to the clinic within 7 to days after the last dose for follow up safety assessments. In the event that a subject discontinues prematurely from the study, every reasonable effort should be made (and documented) to ensure that all procedures and evaluations scheduled for the follow-up visit are performed at the time of discontinuation or a follow-up visit should be scheduled within 7 to days from the discontinuation day.
# Part 2 dosing: In Part 2, subjects will fast overnight for at least 8 hours prior to Compound A administration. On the morning of Day 1, each subject will receive a 20-mg tablet of Compound A orally. Subjects randomized to receive Compound A under fed conditions will be a served a standard high fat meal (breakfast).
# The standard high fat meal or its equivalent must be consumed within minutes of serving. Dosing must occur 30 minutes (+5 minutes) after serving the meal. The tablet will be administered with approximately 240 mL of non-carbonated, room temperature water. After dosing, subjects will continue to fast until 4 hours after dosing.
# [2] = Pharmacokinetics of the metabolite produced in vivo after administration of 7.5-60 mg Compound A; conditions: human; for AUC(0-t): read-out: AUC0-24; for concentration at 15 day: read-out: Ctrough
# Procedure: In certain embodiments, the pharmacokinetic parameters in connection with the metabolite of Compound A produced via administration of 7.5 mg, 15 mg, 30 mg, 45 mg and 60 mg of Compound A are obtained using the protocol set forth in Section 5.2.1 (paragraphs [00497]-[00520]) of U.S. provisional application No. 61/653,436, filed May 31, 2012, which is incorporated by reference herein in its entirety.
# In certain embodiments, the pharmacokinetic parameters set forth herein are mean values obtained from multiple subjects.
# In certain embodiments, the metabolite of Compound A is the O-desmethyl metabolite.
# [3] = fed vs fasted, healthy adult males, 20 mg Compound A
# [4] = po, Fasted (n = 11), single 20-mg oral dose of Compound A tablet
# [5] = po, Fed (n = 11, high fat meal), single 20-mg oral dose of Compound A tablet
# [6] = 7.5 mg, day 1 of administration of about 7.5 mg of Compound A
# [7] = 7.5 mg, on day (number not given) of once a day administration of about 7.5 mg of Compound A
# [8] = 15 mg, day 1 of administration of about 15 mg of Compound A
# [9] = 15 mg, on day (number not given) of once a day administration of about 15 mg of Compound A
# [10] = 30 mg, day 1 of administration of about 30 mg of Compound A
# [11] = 30 mg, day 15 of once a day administration of about 30 mg of Compound A
# [12] = 45 mg, day 1 of administration of about 45 mg of Compound A
# [13] = 45 mg, day 15 of once a day administration of about 45 mg of Compound A
# [14] = 60 mg, day 1 of administration of about 60 mg of Compound A
# [15] = 60 mg, day 15 of once a day administration of about 60 mg of Compound A
smiles,measurement,setting,value
"CC(C)(O)c1ccc(-c2cnc3c(n2)N([C@H]2CC[C@H](O)CC2)C(=O)CN3)cn1 [O-Desmethyl metabolite, 1-((1r,4r)-4-hydroxycyclohexyl)-7-(6-(2-hydroxypropan-2-yl)pyridin-3-yl)-3,4-dihydropyrazino[2,3-b]pyrazin-2(1H)-one]",CL/F,"[1]; Fasted (n = 11), single 20-mg oral dose of Compound A tablet",2.0 L/h
same,CL/F,"[1]; Fed (n = 11, high fat meal), single 20-mg oral dose of Compound A tablet",2.0 L/h
same,decrease in Cmax with a high fat meal,[1]; [3],~17%
same,increase in overall exposure (AUCinf) with a high fat meal,[1]; [3],~3%
same,Tmax,"[1]; oral, fed vs fasted, healthy adult males, 20 mg Compound A, read-out: delay in Tmax with a high fat meal",3 h
same,Tmax,"[1]; po, Fasted (n = 11), single 20-mg oral dose of Compound A tablet, healthy adult males, median, read-out: Tmax",3 h
same,AUC(0-inf),[1]; [4],9830 ng·h/mL
same,Cmax,[1]; [4],425 ng/mL
same,half-life,[1]; [4],14.8 h
same,AUC(0-t),[1]; [4],6400 ng·h/mL
same,Vd/F,[1]; [4],34.7 L
same,AUC(0-inf),[1]; [5],10100 ng·h/mL
same,Cmax,[1]; [5],364 ng/mL
same,half-life,[1]; [5],14.9 h
same,AUC(0-t),[1]; [5],6270 ng·h/mL
same,Vd/F,[1]; [5],42.6 L
same,Tmax,"[1]; po, Fed (n = 11, high fat meal), single 20-mg oral dose of Compound A tablet, median, read-out: Tmax",6 h
same,AUC(0-inf),[2]; [6],7950 ng·h/mL
same,Cmax,[2]; [6],143 ng/mL
same,Tmax,[2]; [6],8 h
same,half-life,[2]; [6],35 h
same,AUC(0-t),[2]; [6],2740 ng·h/mL
same,AUC(0-inf),[2]; [7],45600 ng·h/mL
same,Cmax,[2]; [7],363 ng/mL
same,Tmax,[2]; [7],2 h
same,AUC(0-t),[2]; [7],6400 ng·h/mL
same,AUC(0-inf),[2]; [8],5820 ng·h/mL
same,Cmax,[2]; [8],309 ng/mL
same,Tmax,[2]; [8],2 h
same,half-life,[2]; [8],12 h
same,AUC(0-t),[2]; [8],3830 ng·h/mL
same,AUC(0-inf),[2]; [9],9750 ng·h/mL
same,Cmax,[2]; [9],458 ng/mL
same,Tmax,[2]; [9],3 h
same,AUC(0-t),[2]; [9],5680 ng·h/mL
same,AUC(0-inf),[2]; [10],27700 ng·h/mL
same,Cmax,[2]; [10],776 ng/mL
same,Tmax,[2]; [10],7 h
same,half-life,[2]; [10],21 h
same,AUC(0-t),[2]; [10],13300 ng·h/mL
same,AUC(0-inf),[2]; [11],118000 ng·h/mL
same,Cmax,[2]; [11],1770 ng/mL
same,Tmax,[2]; [11],2 h
same,AUC(0-t),[2]; [11],29400 ng·h/mL
same,AUC(0-inf),[2]; [12],27300 ng·h/mL
same,Cmax,[2]; [12],1150 ng/mL
same,Tmax,[2]; [12],3 h
same,half-life,[2]; [12],17 h
same,AUC(0-t),[2]; [12],15900 ng·h/mL
same,AUC(0-inf),[2]; [13],77700 ng·h/mL
same,Cmax,[2]; [13],2240 ng/mL
same,Tmax,[2]; [13],2 h
same,AUC(0-t),[2]; [13],32700 ng·h/mL
same,AUC(0-inf),[2]; [14],37500 ng·h/mL
same,Cmax,[2]; [14],1440 ng/mL
same,Tmax,[2]; [14],4 to 6 h
same,half-life,[2]; [14],16 h
same,AUC(0-t),[2]; [14],21500 ng·h/mL
same,AUC(0-inf),[2]; [15],138000 ng·h/mL
same,Cmax,[2]; [15],2520 ng/mL
same,Tmax,[2]; [15],3 h
same,AUC(0-t),[2]; [15],46900 ng·h/mL
same,concentration at 15 day,[2]; day 15 of once a day administration of about 30 mg of Compound A,1100 ng/mL
same,concentration at 15 day,[2]; day 15 of once a day administration of about 45 mg of Compound A,1180 ng/mL
same,concentration at 15 day,[2]; day 15 of once a day administration of about 60 mg of Compound A,1470 ng/mL
